Reference: patent publication US20170305943A1, “COMPOUNDS FOR THE TREATMENT OF BACTERIAL INFECTIONS” (priority 2014, published 2017)
Converted amounts (≈) assume the structure as drawn.

system: Clostridium difficile (Isolate ID ATCC 9689); assay: Bacterial Assay: Determination of Antibacterial Activity (MIC, broth microdilution or agar dilution); format: cell-based; details: Clostridioides difficile, ATCC9689, 48 h, read-out: C. difficile MIC Activity Range
Summary of the method: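 MICs were set by CLSI broth microdilution or agar dilution for anaerobes, read visually after 48 hours at 37° C. under anaerobic gas packs. Medium was reinforced clostridial medium with 0.1% defibrinated horse blood; values are binned as A ≦1.01, B >1.0-4.0, C >4.0-16 μg/mL.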

Compound	MIC [µg/mL]
NC(=O)c1c(F)ccc(OCCOCCOc2ccc(C(F)(F)F)cc2)c1F [Compound 146, 2,6-difluoro-3-(2-{2-[4-(trifluoromethyl)phenoxy]ethoxy}ethoxy) benzamide]	< 1.01
NC(=O)c1c(F)ccc(OCCCCNc2ccc(C(F)(F)F)cc2)c1F [Compound 147, 2,6-difluoro-3-(4-{[4-(trifluoromethyl)phenyl]amino}butoxy) benzamide]	1 to 4 (≈ 2.58 to 10.3 µM)
NC(=O)c1c(F)ccc(OCCCCNc2ccc(OC(F)(F)F)cc2)c1F [Compound 148, 2,6-difluoro-3-(4-{[4-(trifluoromethoxy)phenyl]amino}butoxy) benzamide]	< 1.01
NC(=O)c1c(F)ccc(OCCCCOc2ccc(OC(F)F)cc2)c1F [Compound 149]	< 1.01
NC(=O)c1c(F)ccc(NCCCCOc2ccc(OC(F)(F)F)cc2)c1F [Compound 150, 2,6-difluoro-3-({4-[4-(trifluoromethoxy)phenoxy]butyl}amino) benzamide]	1 to 4 (≈ 2.47 to 9.89 µM)
NC(=O)c1c(F)ccc(OCCCCOc2ccccc2)c1F [Compound 151, 2,6-difluoro-3-(4-phenoxybutoxy)benzamide]	1 to 4 (≈ 3.11 to 12.4 µM)
NC(=O)c1c(F)ccc(OCCCCSc2ccc(Cl)cc2)c1F [Compound 153, 3-{4-[(4-chlorophenyl)thio]butoxy}-2,6-difluorobenzamide]	< 1.01
COc1ccc(OCCCCOc2ccc(F)c(C(N)=O)c2F)cc1 [Compound 154, 2,6-difluoro-3-[4-(4-methoxyphenoxy)butoxy]benzamide]	1 to 4 (≈ 2.85 to 11.4 µM)
NC(=O)c1c(F)ccc(OCCOCCOc2ccc(C(F)(F)F)cn2)c1F [Compound 156, 2,6-difluoro-3-[2-(2-{[5-(trifluoromethyl)pyridin-2-yl]oxy}ethoxy)ethoxy]benzamide]	1 to 4 (≈ 2.46 to 9.84 µM)
NC(=O)c1c(F)ccc(SCCCCOc2ccc(OC(F)(F)F)cc2)c1F [Compound 157, 2,6-difluoro-3-({4-[4-(trifluoromethoxy)phenoxy]butyl}thio)benzamide]	1 to 4 (≈ 2.37 to 9.49 µM)
NC(=O)c1c(F)ccc(OCCCCOc2ccc(C(F)(F)F)nn2)c1F [Compound 158, 2,6-difluoro-3-(4-{[6-(trifluoromethyl)pyridazin-3-yl]oxy}butoxy)benzamide]	4 to 16 (≈ 10.2 to 40.9 µM)
NC(=O)c1c(F)ccc(OCCCCOc2ccc(F)cc2F)c1F [Compound 162, 3-[4-(2,4-difluorophenoxy)butoxy]-2,6-difluorobenzamide]	1 to 4 (≈ 2.8 to 11.2 µM)
NC(=O)c1c(F)ccc(OCCCCOc2ccc(OC(F)(F)F)c(Br)c2)c1F [Compound 163, 3-{4-[3-bromo-4-(trifluoromethoxy)phenoxy]butoxy}-2,6-difluorobenzamide]	< 1.01
NC(=O)c1c(F)ccc(OCCCCOc2ccc(OC(F)(F)F)c(Cl)c2)c1F [Compound 164, 3-{4-[3-chloro-4-(trifluoromethoxy)phenoxy]butoxy}-2,6-difluorobenzamide]	< 1.01
NC(=O)c1c(F)ccc(OCCCCOc2cccc(C(F)(F)F)c2)c1F [Compound 165, 2,6-difluoro-3-{4-[3-(trifluoromethyl)phenoxy]butoxy}benzamide]	1 to 4 (≈ 2.57 to 10.3 µM)
NC(=O)c1c(F)ccc(OCCCCOc2cccc(OC(F)(F)F)c2)c1F [Compound 166, 2,6-difluoro-3-{4-[3-(trifluoromethoxy)phenoxy]butoxy} benzamide]	< 1.01
NC(=O)c1c(F)ccc(OCCCCOc2cccc(F)c2)c1F [Compound 167, 2,6-difluoro-3-[4-(3-fluorophenoxy)butoxy] benzamide]	1 to 4 (≈ 2.95 to 11.8 µM)
NC(=O)c1c(F)ccc(OCCCCOc2ccc(F)cc2)c1F [Compound 168, 2,6-difluoro-3-[4-(4-fluorophenoxy)butoxy] benzamide]	1 to 4 (≈ 2.95 to 11.8 µM)
NC(=O)c1c(F)ccc(OCCCCOc2ccc(Cl)c(C(F)(F)F)c2)c1F [Compound 169, 3-{4-[4-chloro-3-(trifluoromethyl)phenoxy]butoxy}-2,6-difluorobenzamide]	< 1.01
NC(=O)c1c(F)ccc(OCCCCOc2ccc(F)c(F)c2)c1F [Compound 170, 3-[4-(3,4-difluorophenoxy)butoxy]-2,6-difluorobenzamide]	1 to 4 (≈ 2.8 to 11.2 µM)
NC(=O)c1c(F)ccc(OCCCCOc2ccc(Cl)c(Cl)c2)c1F [Compound 171, 3-[4-(3,4-dichlorophenoxy)butoxy]-2,6-difluorobenzamide]	< 1.01
NC(=O)c1c(F)ccc(OCCCCOc2cccc(Br)c2)c1F [Compound 172, 3-[4-(3-bromophenoxy)butoxy]-2,6-difluorobenzamide]	1 to 4 (≈ 2.5 to 9.99 µM)
N#Cc1cccc(OCCCCOc2ccc(F)c(C(N)=O)c2F)c1 [Compound 173, 3-[4-(3-cyanophenoxy)butoxy]-2,6-difluorobenzamide]	4 to 16 (≈ 11.5 to 46.2 µM)

Compound	MIC [µg/mL]
NC(=O)c1c(F)ccc(OCCCCOc2cccc(S(F)(F)(F)(F)F)c2)c1F [Compound 174, 2,6-difluoro-3-{4-[3-(pentafluoro-lambda~6~- sulfanyl)phenoxy]butoxy}benzamide]	< 1.01
CC(C)(C)c1ccc(OCCCCOc2ccc(F)c(C(N)=O)c2F)cc1 [Compound 175, 3-[4-(4-tert-butylphenoxy)butoxy]-2,6-difluorobenzamide]	< 1.01
NC(=O)c1c(F)ccc(OCCCCOc2ccc(Br)cc2)c1F [Compound 176, 3-[4-(4-bromophenoxy)butoxy]-2,6-difluorobenzamide]	< 1.01
N#Cc1ccc(OCCCCOc2ccc(F)c(C(N)=O)c2F)cc1 [Compound 177, 3-[4-(4-cyanophenoxy)butoxy]-2,6-difluorobenzamide]	1 to 4 (≈ 2.89 to 11.5 µM)
N/C(=N\O)c1c(F)ccc(OCCCCOc2ccc(C(F)(F)F)cn2)c1F [Compound 178, 2,6-difluoro-N′-hydroxy-3-(4-{[5-(trifluoromethyl)pyridin-2-yl]oxy}butoxy)benzenecarboximidamide]	4 to 16 (≈ 9.87 to 39.5 µM)
NC(=O)c1c(F)ccc(NCCCCOc2ccc(C(F)(F)F)cn2)c1F [Compound 179, 2,6-difluoro-3-[(4-{[5-(trifluoromethyl)pyridin-2-yl]oxy}butyl)amino]benzamide]	4 to 16 (≈ 10.3 to 41.1 µM)
CN(CCCCOc1ccc(C(F)(F)F)cn1)c1ccc(F)c(C(N)=O)c1F [Compound 180, 2,6-difluoro-3-[methyl(4-{[5-(trifluoromethyl)pyridin-2-yl]oxy}butyl)amino]benzamide]	1 to 4 (≈ 2.48 to 9.92 µM)
NC(=O)c1c(F)ccc(N(CCO)CCCCOc2ccc(OC(F)(F)F)cc2)c1F [Compound 181, 2,6-difluoro-3-[(2-hydroxyethyl){4-[4-(trifluoromethoxy)phenoxy]butyl}amino] benzamide]	1 to 4 (≈ 2.23 to 8.92 µM)
N#CCCCN(CCCCOc1ccc(OC(F)(F)F)cc1)c1ccc(F)c(C(N)=O)c1F [Compound 182, 3-[(3-cyanopropyl){4-[4-(trifluoromethoxy)phenoxy]butyl)amino]-2,6-difluorobenzamide]	4 to 16 (≈ 8.48 to 33.9 µM)
NC(=O)CN(CCCCOc1ccc(OC(F)(F)F)cc1)c1ccc(F)c(C(N)=O)c1F [Compound 183, 3-[(2-amino-2-oxoethyl){4-[4-(trifluoromethoxy)phenoxy]butyl}amino]-2,6-difluorobenzamide]	4 to 16 (≈ 8.67 to 34.7 µM)
COCCN(CCCCOc1ccc(OC(F)(F)F)cc1)c1ccc(F)c(C(N)=O)c1F [Compound 184, 2,6-difluoro-3-[(2-methoxyethyl){4-[4-(trifluoromethoxy)phenoxy]butyl}amino]benzamide]	1 to 4 (≈ 2.16 to 8.65 µM)
Cc1ccc(CN(CCCCOc2ccc(OC(F)(F)F)cc2)c2ccc(F)c(C(N)=O)c2F)cn1 [Compound 185, 2,6-difluoro-3-([(6-methylpyridin-3-yl)methyl]{4-[4-(trifluoromethoxy)phenoxy]butyl}amino)benzamide]	4 to 16 (≈ 7.85 to 31.4 µM)
CCOC(=O)CN(CCCCOc1ccc(OC(F)(F)F)cc1)c1ccc(F)c(C(N)=O)c1F [Compound 186, ethyl N-(3-carbamoyl-2,4-difluorophenyl)-N-{4-[4-(trifluoromethoxy)phenoxy]butyl}glycinate]	1 to 4 (≈ 2.04 to 8.16 µM)
NC(=O)c1c(F)ccc(N(CCCCOc2ccc(OC(F)(F)F)cc2)CC(=O)O)c1F [Compound 187, N-(3-carbamoyl-2,4-difluorophenyl)-N-{4-[4-(trifluoromethoxy)phenoxy]butyl}glycine]	4 to 16 (≈ 8.65 to 34.6 µM)
NC(=O)c1c(F)ccc(OCc2cc(-c3ccc(Cl)cc3)cs2)c1F [Compound 188, 3-{[4-(4-chlorophenyl)thiophen-2-yl]methoxy}-2,6-difluorobenzamide]	< 1.01
CCOC(=O)c1cc(Cl)ccc1-c1csc(COc2ccc(F)c(C(N)=O)c2F)n1 [Compound 190, ethyl 2-{2-[(3-carbamoyl-2,4-difluorophenoxy)methyl]-1,3-thiazol-4-yl}-5-chlorobenzoate]	4 to 16 (≈ 8.83 to 35.3 µM)
COc1ccc(-c2nc(COc3ccc(F)c(C(N)=O)c3F)sc2-c2cccc(Cl)c2O)cc1 [Compound 191, 3-{[5-(3-chloro-2-hydroxyphenyl)-4-(4-methoxyphenyl)-1,3-thiazol-2-yl]methoxy}-2,6-difluorobenzamide]	4 to 16 (≈ 7.95 to 31.8 µM)
COc1cc(-c2csc(COc3ccc(F)c(C(N)=O)c3F)n2)ccc1Cl [Compound 195, 3-{[4-(4-chloro-3-methoxyphenyl)-1,3-thiazol-2-yl]methoxy}-2,6-difluorobenzamide]	4 to 16 (≈ 9.74 to 38.9 µM)
NC(=O)c1c(F)ccc(OCc2nc(-c3ccc(Cl)c(O)c3)cs2)c1F [Compound 196, 3-{[4-(4-chloro-3-hydroxyphenyl)-1,3-thiazol-2-yl]methoxy}-2,6-difluorobenzamide]	1 to 4 (≈ 2.52 to 10.1 µM)
COc1ccc(C#Cc2csc(COc3ccc(F)c(C(N)=O)c3F)n2)cc1 [Compound 197, 2,6-difluoro-3-({4-[(4-methoxyphenyl)ethynyl]-1,3-thiazol-2-yl}methoxy)benzamide]	< 1.01
NC(=O)c1c(F)ccc(OCc2nc(CCc3cccc(Cl)c3)cs2)c1F [Compound 199, 3-({4-[2-(3-chlorophenyl)ethyl]-1,3-thiazol-2-yl}methoxy)-2,6-difluorobenzamide]	< 1.01
Cc1nn(-c2ccc(Cl)cc2)nc1COc1ccc(F)c(C(N)=O)c1F [Compound 200, 3-{[2-(4-chlorophenyl)-5-methyl-2H-1,2,3-triazol-4-yl]methoxy}-2,6-difluorobenzamide]	1 to 4 (≈ 2.64 to 10.6 µM)
